This note sets out measurements from US12503448B2, “Antibacterial and antiparasitic quinoxaline-2,3-diamine derivatives” (University College Cardiff Consultants Limited, priority 2019, dated 2025).

SMILES strings stand for the structures. Converted amounts (≈) assume the structure as drawn. Read-outs that look alike come from different tables or passages of the source. A value given as a limit tells only on which side of the number the result lay.

In series [1] the test system is S. mansoni adult worms. Nature of the series: Adult worm drug screen (WHO scoring, WormassayGP2). The format is cell-based, Schistosoma mansoni. The note with it: for Selectivity Index Adult: HepG2 CC50 over adult worm EC50; for EC50: Schistosoma mansoni, adult worms. From the text:
Mice (MF-1 mice, Harlan, UK), infected 7 weeks previously with 180 cercaria, were euthanised with an intraperitoneal injection of phenobarbital/heparin solution. Adult worms were recovered by perfusion of the portal system and subjected to drug screening as previously described in Padalino G, Ferla S, Brancale A, Chalmers I W, Hoffmann K F. Int J Parasitol Drugs Drug Resist. 2018 December; 8(3):559-570; in Whiteland H L, Chakroborty A, Forde-Thomas J E, Crusco A, Cookson A, Hollinshead J, Fenn C A, Bartholomew B, Holdsworth P A, Fisher M, Nash R J, Hoffmann K F. Int J Parasitol Drugs Drug Resist. 2018 December; 8(3):465-474; and in Crusco A, Bordoni C, Chakroborty A, Whatley K C L, Whiteland H, Westwell A D, Hoffmann K F. Eur J Med Chem. 2018 May 25; 152:87-100. The data obtained in this manner is shown in Table 1 in the columns labelled “Adult worm”.
Regarding the quantification of drug treatment on adult worms (e.g. decreased activity, paralysis or sluggishness), two different approaches were used, as described below. Where egg deposition was noticed, eggs were removed and counted using a Sedgewick rafter slide.
Adult worms were scored using the standardized microscopic WHO-TDR scoring system previously described by Ramirez, B., Bickle, Q., Yousif, F., Fakorede, F., Mouries, M.-A., Nwaka, S. in Schistosomes: Challenges in compound screening, Expert Opin Drug Discov. 2007 October; 2(s1): S53-61. This scoring system (0-4) identifies changes in worm movement and is defined according to the following scoring matrix: 0=no movement, 1=no movement with visible gut peristalsis, 2=minimal movement (occasional movement from anterior or posterior end of the worm), 3=slow continuous movement and 4=normal movement.
A digital image processing-based system was also used to assess parasite motility after drug treatment and is a modification of methods previously described by Marcellino C., Gut, J., Lim, K., Singh R., McKerrow, L. and Sakanari, J. WormAssay: a novel computer application for whole-plate motion-based screening of macroscopic parasites. PLoS Negl Trop Dis. 2012 January:6(1):e1494. This allowed for objective verification of the WHO method described above. The data obtained with this quantification method is shown in Table 1 in the columns labelled “Adult worm”.

The nature of series [2]: MTT assay on HepG2 cells. Type of series: cell-based. The note with it: human. Here is the method:
MTT Assay on HepG2 Cells Human Hepatocyte Carcinoma (HepG2) cells (85011430, Sigma Aldrich) were used to assess the overt toxicity of these anti-infective compounds. […] A negative control (1% v/v Triton X-100; X100, Sigma-Aldrich) was also included in each screen. After addition of compounds, each plate was then incubated for a further 20 hrs before application of MTT reagent (prepared as described in Nur-[…], Bari A, Ghabbour […], Hoffmann […] Nat Prod. 2017 Jun. 23; 80(6):1900-1908 for the assessment of compound cytotoxicity using the MTT assay. […] The plate was then further incubated for 4 hrs. After incubation, each plate was blotted dry under the laminar flow to remove the MTT treated culture media. A 100 μl DMSO: isopropanol (1:1) solution was then added to each well and the plate was then subsequently incubated for 10 minutes at 37° C. Following incubation, each plate was shaken again and then absorbance measured at 570 nm. The absorbance reading was corrected based on the average value of the wells used as blank (no cells). […] The data obtained in this manner is shown in Table 1 in the columns labelled “HepG2”. […] The selectivity indexes for schistosomula and adult worms are shown in the final two columns in Table 1.
A general note: Formazan colour is commonly taken as a measure of viable cells.

Series [3] concerns S. mansoni schistosomula. Nature of the series: 72 hours schistosomula drug screen. The format is cell-based, Schistosoma mansoni. The conditions noted are these: for Selectivity Index Schistosomula: HepG2 CC50 over schistosomula EC50; for EC50: Schistosoma mansoni. Here is the method: Biological Screening 72 Hours Schistosomula Drug Screen […] G. Colley, […], Schistosoma mansoni: simplified method for the production of schistosomules., Exp. Parasitol. 35 (1974) 44-51. Newly transformed schistosomula were prepared for 72 hour high throughput screening (HTS) in 384-well black-sided microtiter plates (Perkin Elmer, MA, USA) as described in M. Nur-e-alam, M. Yousaf, […]. Bari, H. A. Ghabbour, […]. Ho, A. J. […], Neoclerodane Diterpenoids from […], Teucrium […]. Nat. […] The data obtained in this manner is shown in Table 1 in the columns labelled “Phenotype”, “Motility” and “Schistosomula average”.

Series [4] has as its system F. hepatica newly excysted juveniles (NEJs). The series can be described thus: Newly excysted juveniles (NEJs) drug screen. The note with it: 10 μM, 72 h; higher score indicates lower worm activity. Details: scale not given here. The format is cell-based, Fasciola hepatica. As to the method: Newly Excysted Juveniles (NEJs) Drug Screen
F. hepatica (Italian strain) metacercariae were obtained from Ridgeway Research, Gloucestershire, UK and stored at 4° C. Newly excysted juveniles (NEJs) from metacercariae were produced based on an optimisation introduced to the excystment method published by Dixon et al. and Wilson et al (Dixon, K. E., The physiology of excystment of the metacercaria of Fasciola hepática L. Parasitology, 1966, 56, 431-456.; Wilson, L. R., Good, R. T., Panaccio, M., Wijffels, G. L., Sandeman, R. M., Spithill, T. W, Fasciola hepatica: Characterization and Cloning of the Major Cathepsin B Protease Secreted by Newly Excysted Juvenile Liver Fluke. Experimental Parasitology 1998, 88, 85-94).
After excystment, NEJs were distributed into a 24 well tissue culture plate at a density of 25 parasites per well containing 1 mL of pre-warmed NEJs culture media. Compounds were added to respective wells and NEJ/compound co-cultures were incubated at 37° C. in an atmosphere containing 5% CO2 for 72 hours at a final concentration of 10 μM.
F. hepatica NEJs (25 per well) were incubated with the three compounds at a concentration of 10 μM (in 0.1% DMSO) and cultured for 72 hrs at 37° C. in an atmosphere containing 5% CO2. Control wells (25 NEJs per well) included those containing 0.1% DMSO (solvent) and RMPI (media) as negative controls or 10 μM Triclabendazole (0.1% DMSO, as positive control, labelled “Tbz” (Comp. 3). After 72 hrs, all NEJs were scored for phenotype and motility metrics. For each treatment, an average of both phenotype and motility score was calculated based on the individual parasite scores (across two independent replicates), wherein a higher score indicates lower worm activity. SD is reported on the bar chart.

A short description of series [5]: Metabolic stability in mouse liver microsomes. The conditions noted are these: liver microsomes. (In general: Microsomes from liver hold many membrane-bound enzymes, among them those of drug oxidation.)
Series [6] is described as follows: Semi thermodynamic solubility. The conditions noted are these: thermodynamic from solid.
In series [7] the test system is E. coli ATCC 25922. Nature of the series: In vitro antibacterial activity. Type of series: cell-based. The note with it: Escherichia coli, ATCC25922.
Series [8] deals with B. cereus. Nature of the series: In vitro antibacterial activity. Type of series: cell-based. The note with it: Bacillus cereus.
In series [9] the test system is M. smegmatis mc^2 15 ATCC 700084. Nature of the series: In vitro antibacterial activity. The format is cell-based, Mycobacterium smegmatis. The note with it: Mycolicibacterium smegmatis, ATCC700084.
The nature of series [10]: Mouse pharmacokinetics, oral cassette dosing. The conditions noted are these: male, C57/BL6, mouse, plasma, po, 2.5 mg/kg. Here is the method:
Non-compartmental mouse pharmacokinetics (Male C57/BL6 Mouse, Fasted; 3 mice per group) were determined after oral administration of a nominal dose of 2.5 mg/kg of these formulations in cassettes (5 compounds/group) according to the protocols employed by WuXi (https://www.wuxiapptec.com; the CRO that conducted these studies).

The subject of series [11] is S. aureus ATCC 29213. The series can be described thus: In vitro antibacterial activity. The format is cell-based. The conditions noted are these: Staphylococcus aureus, ATCC29213.
For series [12], the system named is S. epidermidis NTCT11077. Nature of the series: In vitro antibacterial activity. The format is cell-based. The conditions noted are these: Staphylococcus epidermidis, NTCT11077.
For series [13], the system named is Pseudomonas aeruginosa ATCC 27853. The series can be described thus: In vitro antibacterial activity. The note with it: Pseudomonas aeruginosa, ATCC27853. The format is cell-based.
[14] abbreviates: schistosomula, 72 hour culture, read-out: EC50 Motility.
[15] abbreviates: schistosomula, 72 hour culture, read-out: EC50 Phenotype.

By EC50 is commonly meant the concentration that produces a half-maximal response. In general, CC50 refers to the concentration giving 50% cytotoxicity. As usually defined, the half-life is the time in which the quantity being followed falls by half. Usually microsomal CLint stands for the rate of metabolic loss divided by the concentration. For orientation: solubility (thermodynamic) means the concentration in solution at equilibrium with solid. What is called MIC90 is the lowest concentration that inhibits either 90% of growth or 90% of the strains tested, depending on the study. For orientation: AUC(0-t) means exposure summed from dosing to a finite time, without extrapolation to infinity. The term Cmax denotes the highest concentration seen after dosing. As a reminder, the MRT last is the average time that molecules of a dose stay in the body. In general, Tmax refers to the time from dosing to the highest level.

`O=[N+]([O-])c1ccc2nc(Nc3ccc(F)cc3)c(Nc3ccc(F)cc3)nc2c1` [Compound 6, N^2, N^3-bis(4-fluorophenyl)-6-nitroquinoxaline-2,3-diamine]: the “Selectivity Index Adult” value in [1] is recorded as 121. In addition, the values for the EC50 in series [1], in series [3] (setting [14]) and in series [3] (setting [15]) were 0.18 µM, 1.4 µM and 2.14 µM, respectively. In addition, the midpoint of cytotoxicity in series [2], the CC50 at 24 h, lay at 22 µM. The “Selectivity Index Schistosomula” value in series [3] stood at 12.
In the case of `CCCCCC(=O)Nc1ccc2nc(Nc3ccc(Cl)c(Cl)c3)c(Nc3ccc(Cl)c(Cl)c3)nc2c1` [Compound 18, N-(2,3-bis((3,4-dichlorophenyl)amino)quinoxalin-6-yl)hexanamide], the “Motility (M) Mean score” value in series [4] amounted to 4.05. For the same molecule, the “Phenotype (P) Mean score” value in series [4] was found to be 4.09. The molecule also came in with a half-life at 1 μM in series [5] of 0.618 h. The molecule further yielded an intrinsic clearance (microsomal CLint) at 1 μM in series [5] of 37.4 µL/min/mg. The solubility (thermodynamic) in series [6] stood at 15.5 µM (≈ 8.73 µg/mL). For the same molecule, the MIC90 is greater than 125 mg/L in series [7]; 125 mg/L (≈ 222 µM) in series [8]; greater than 125 mg/L in series [9]; 62.5 mg/L (≈ 111 µM) in series [11]; greater than 125 mg/L in series [12]; greater than 125 mg/L in series [13]. The “Selectivity Index Adult” value in [1] came out at 203. Further, the EC50 came to 0.32 µM in [1], 1.8 µM in series [3] (setting [14]) and 1.02 µM in series [3] (setting [15]). Moreover, in series [10], the exposure AUC(0-t) is 0.0682 µg·h/mL. In series [10], this molecule yielded a Cmax of 0.0164 µg/mL. In addition, the mean residence time MRT last in series [10] came out at 3.86 h. In addition, in series [10], the Tmax turned out to be 4 h. The “Selectivity Index Schistosomula” value in [3] was determined as 46.
Take `c1ccc(/N=c2\sc3ccccc3s\c2=N/c2ccccc2)cc1` [Compound 20]: the CC50 at 24 h in [2] came to 13.8 µM. Also, the “Selectivity Index Schistosomula” value in series [3] was 3. The EC50 in [3] (average of phenotype and motility, read-out: EC50 Schistosomula average) is 4.41 µM; in series [3] (setting [14]) it was 4.51 µM; in series [3] (setting [15]), 4.31 µM.
In series [2], `Cc1cccc(Nc2nc3ccc([N+](=O)[O-])cc3nc2Nc2cccc(C)c2)c1` [Compound 21] gave a 50% cytotoxic concentration (CC50) at 24 h of 15.6 µM. Moreover, the “Selectivity Index Schistosomula” value in [3] is given as 11. Besides, the EC50 in series [3] (setting [14]) worked out at 1.23 µM; in series [3] (setting [15]) it was 1.62 µM.
